Common to all, as to format: cell-based
For test [1], the system named is herpes simplex virus 1 (HSV-1; HFEM strain). As to the kind of experiment: Plaque Reduction Test for Herpes Simplex Virus 1. As to conditions: Human alphaherpesvirus 1, Vero or MRC-5 cells, read-out: IC₅₀ against HSV-1 virus. As to the method: (§1) Vero or MRC-5 cells were grown to confluence in 24 well multi-dishes (well diameter = 1.5cm). The drained cell monolayers were each infected with approximately 50 infectious particles of herpes simplex virus 1 (HSV-1; HFEM strain) or herpes simplex virus 2 (HSV-2; strain MS) in 100µl of phosphate-buffered saline. The virus was adsorbed for 1 hour at room temperature. After adsorption, residual inoculum was removed from each well and replaced with 0.5ml of Eagle's MEM containing 5% newborn calf serum and 0.9% agarose (A37). Once the agarose had set, dilutions of the test compound, which had been prepared in Eagle's MEM (containing 5% newborn calf serum), were added, each well receiving 0.5ml of liquid overlay. The test compound was diluted to give the following series of concentrations: 200, 60, 20, 6....0.06µg/ml; final concentrations in the assay ranged, therefore, between 100µg/ml and 0.03µg/ml. The infected cultures were incubated at 37 °C in a humidified atmosphere of 5% CO₂ until plaques were clearly visible (2 or 3 days for Vero cells, usually 1 day for MRC-5 cells).
(§2) Cultures from 1 and 2 were fixed in formal saline, the agarose overlays were carefully washed off, and then the cell monolayers were stained with carbol fuchsin. A stereo microscope was used to count plaques. The IC₅₀ (concentration of drug which inhibits the number of plaques formed by 50% relative to the number of plaques observed in virus control monolayers) of the test compound was calculated. In addition, the monolayers were examined for evidence of drug-induced cytotoxicity; the minimum concentration at which cytotoxicity occurred was recorded.

Test [2] deals with varicella zoster virus (VZV; Ellen strain). Kind of test: Plaque Reduction Test for Varicella Zoster Virus. The conditions noted are these: Human alphaherpesvirus 3, MRC5, MRC-5 cells, read-out: IC₅₀ against VZV. As to the method:
MRC-5 cells were grown to confluence in 24 well multi-dishes (well diameter = 1.5cm). The drained cell monolayers were each infected with approximately 50 infectious particles of varicella zoster virus (VZV; Ellen strain) in 100µl of phosphate-buffered saline. The virus was adsorbed for 1 hour at room temperature. After adsorption, residual inoculum was removed from each well and replaced with 0.5ml of Eagle's MEM containing 5% heat-inactivated foetal calf serum and 0.9% agarose (A37). Once the agarose had set, dilutions of the test compound, which had been prepared in Eagle's MEM (containing 5% heat-inactivated foetal calf serum), were added, each well receiving 0.5ml of liquid overlay. The test compound was diluted to give the following series of concentrations: 200, 60, 20, 6....0.06µg/ml; final concentrations in the assay ranged, therefore, between 100µg/ml and 0.03µg/ml. The infected cultures were incubated at 37 °C in a humidified atmosphere of 5% CO₂ until plaques were clearly visible (5 or 6 days).
as §2

Test [3] deals with cytomegalovirus (CMV; AD-169 strain). Kind of test: Plaque Reduction Test for Cytomegalovirus. The conditions noted are these: Human betaherpesvirus 5, AD169, MRC5, MRC-5 cells, read-out: IC₅₀ against CMV. As to the method: MRC-5 cells were grown to confluence in 24 well multi-dishes (well diameter = 1.5cm). The drained cell monolayers were each infected with approximately 50 infectious particles of cytomegalovirus (CMV; AD-169 strain) in 100µl of phosphate-buffered saline. The virus wasadsorbed for 1 hour at room temperature. After adsorption, residual inoculum was removed from each well and replaced with 1ml of Eagle's MEM containing 10% heatinactivated foetal calf serum and 0.9% agarose (A37). Once the agarose had set, dilutions of the test compound, which had been prepared in Eagle's MEM (containing 10% heat-inactivated calf serum), wereadded, each well receiving 1ml of liquid overlay. The test compound was diluted to give the following series of concentrations: 200, 60, 20, 6....0.06µg/ml; final concentrations in the assay range, therefore, between 100µg/ml and 0.03µg/ml. The infected cultures were incubated at 37 °C in a humidified atmosphere containing 5% CO₂ until plaques were clearly visible (about 12days). The cultures are fixed in formol saline, the agarose overlays were carefully washed off, and then the cell monolayers were stained with carbol fuchsin. A stereo microscope was used to count plaques. The IC₅₀ (concentration of drug which inhibits the number of plaques formed by 50% relative to the number of plaques observed in virus control monolayers) of the test compound was calculated. In addition, the monolayers were examined for evidence of drug-induced cytotoxicity; the minimum concentration at which cytotoxicity occurs was recorded.

In test [4] the test system is herpes simplex virus 2 (HSV-2; strain MS). As to the kind of experiment: Plaque Reduction Test for Herpes Simplex Virus 2. As to conditions: Human alphaherpesvirus 2, Vero or MRC-5 cells, read-out: IC₅₀ against HSV-2. The method, then: as §1, §2
The test system of test [5] is HIV-1 strain virus. As to the kind of experiment: HIV Suppression test in peripheral human lymphocytes (p24 ELISA and viral RNA hybridisation). The conditions noted are these: Human immunodeficiency virus 1, Lymphocyte; for inhibition at 1 µM: Concn. 1 µM; for inhibition at 10 µM: Concn. 10 µM. As to the method: Peripheral human lymphocytes were prepared, cultivated, and harvested as above. Following the determination of the lymphocyte surface markers, unstimulated and mitogen stimulated cells were combined in a ratio of 1:2.
Under safety conditions these cells are infected with a standard preparation of HIV. The cells are sedimented by centrifugation. The supernatant was discarded and cells were resuspended in the HIV inoculum.
This inoculum is a liquid suspension of HIV-1 strain virus, pretested and adjusted to a titer that results in a synthesis of viral core protein p24 of >100 ng/ml at day four following infection of human lymphocytes according to the protocol.
3x10⁸ lymphocytes were resuspended in 1 ml HIV inoculum and incubated at 37 °C for 60 minutes. Subsequently, the cells were washed two times with 50 ml of culture medium and resuspended in culture medium containing 10 units/ml of human recombinant interleukin-2 to yield a cell concentration of 2x10⁶ cells/ml. 100µl of this cell suspension was added to each well of the microtiter plates containing the diluted solutions of the compounds. The microtiter plates were cultivated in an incubator with a humidified atmosphere and 5% CO₂ at 37 °C.
Accordingly, a fraction of lymphocytes was mock-infected with the same virus preparation that was heat inactivated (30 minutes at 56 °C) prior to infection.
On each of the days 2,3 and 4 post infection one of the microtiter plates which had been established in triplicate was prepared for determination of viral replication. Viral RNA is determined within the cells whereas the viral core protein p24 was detected in the supernatant of the lymphocyte culture.
Accordingly, 150 µl of supernatant were removed from each well and transferred to the well of a microtiter plate containing 50 µl/well of SDS (sodium dodecylsulfate, 0.08%). These plates were stored frozen. 50 µl of stop solution (1% SDS, 20mM sodium acetate, pH 5.0, and 200 µg/ml heparin) were added to the cells remaining in each well. The plates were stored frozen.
The concentration of p24 synthesized by the HIV infected cells was determined by means of a sandwich ELISA, while the concentration of viral RNA was quantitated by nucleic acid hybridisation, using a ³²P-labelled DNA probe for the gag/pol region of the viral genome. Absolute levels of viral antigen and RNA in drug treated samples were compared with untreated, virus-infected controls and the percentage inhibition calculated.

The mark [6] stands for this setting: 72 h, viral RNA, Day 3 after infection, read-out: % Inhibition on Days 3 and 4 after infection Viral RNA Day 3.
Where [7] appears, read: 72 h, viral core protein p24, Day 3 after infection, read-out: % Inhibition on Days 3 and 4 after infection Viral Anitgen Day 3.
Where [8] appears, read: 96 h, viral RNA, Day 4 after infection, read-out: % Inhibition on Days 3 and 4 after infection Viral RNA Day 4.
Setting [9] is: 96 h, viral core protein p24, Day 4 after infection, read-out: % Inhibition on Days 3 and 4 after infection Viral Anitgen Day 4.

Values after ≈ are worked out from the molar mass of the structure shown. Like-named read-outs stand apart in the source and are kept apart here.

With `Nc1nc2c(ncn2OC[C@@H](CO)OCP(=O)(O)O)c(=O)[nH]1` [Example 1, (R)-9-[3-Hydroxy-2-(phosphonomethoxy)propoxy]quanine], the IC50 in test [1] came out at 7 µg/mL (≈ 20.9 µM); in test [2], 17 µg/mL (≈ 50.7 µM); in test [3], 3 µg/mL (≈ 8.95 µM); in test [4], 10 µg/mL (≈ 29.8 µM). The inhibition at 1 µM in test [5] (setting [6]) is 73%; in test [5] (setting [7]) it was 100%; in test [5] (setting [8]), 54%; in test [5] (setting [9]) it was 35%.

Turning to `Nc1nc2c(ncn2OC[C@@H]2COP(=O)(O)CO2)c(=O)[nH]1` [Example 5, (R)-9-[(2-Hydroxy-2-oxo-1,4,2-dioxaphosphorinan-5-yl)methoxy]quanine], the IC50 came out at 73 µg/mL (≈ 230 µM) in test [1], 24 µg/mL (≈ 75.7 µM) in test [2], 17 µg/mL (≈ 53.6 µM) in test [3] and 36 µg/mL (≈ 113 µM) in test [4]. Besides, the inhibition at 10 µM in test [5] (setting [6]) was found to be 64%; in test [5] (setting [7]) it was 50%; in test [5] (setting [8]) it was 0%; in test [5] (setting [9]), 7%.

In the case of `Nc1ncnc2c1ncn2OC[C@@H](CO)OCP(=O)(O)O` [Example 3, (R)-9-[3-Hydroxy-2-(phosphonomethoxy)propoxy]adenine], the inhibition at 10 µM in test [5] (setting [6]) worked out at 83%; in test [5] (setting [7]) it was 80%; in test [5] (setting [8]) it was 90%; in test [5] (setting [9]) it was 91%.

As for `Nc1nc2c(ncn2OC[C@H]2COP(=O)(O)CO2)c(=O)[nH]1` [Example 2, (S)-9-[(2-Hydroxy-2-oxo-1,4,2-dioxaphosphorinan-5-yl)methoxy]quanine], the IC50 in test [1] is 21 µg/mL (≈ 66.2 µM); in test [2], 13 µg/mL (≈ 41 µM); in test [3], 3 µg/mL (≈ 9.46 µM); in test [4], 15 µg/mL (≈ 47.3 µM). Besides, the inhibition at 10 µM in test [5] (setting [6]) came to 92%; in test [5] (setting [7]), 100%; in test [5] (setting [8]), 32%; in test [5] (setting [9]), 33%.

In the case of `Nc1nc2c(ncn2OC[C@H](CO)OCP(=O)(O)O)c(=O)[nH]1` [Example 4, (S)-9-[3-Hydroxy-2-(phosphonomethoxy)propoxy]quanine], the IC50 came to 25 µg/mL (≈ 74.6 µM) in test [1], 52 µg/mL (≈ 155 µM) in test [2], 29 µg/mL (≈ 86.5 µM) in test [3] and 23 µg/mL (≈ 68.6 µM) in test [4]. In addition, the inhibition at 1 µM in test [5] (setting [6]) worked out at 10%; in test [5] (setting [7]) it was 54%; in test [5] (setting [8]), 14%; in test [5] (setting [9]), 15%.

The values above are taken from patent publication EP0405748A1, “Phosphonoderivative of purine with antiviral activity” (Beecham Group p.l.c., priority 1989, dated 1991).
